We go through twelve compounds from ChEMBL document CHEMBL1221354, “Synthesis of polyhydroxylated aromatics having amidation of piperazine nitrogen as HIV-1 integrase inhibitor” (Bioorg Med Chem Lett, 2010).

Chain of Human immunodeficiency virus type 1 integrase (Q7ZJM1 whole entry): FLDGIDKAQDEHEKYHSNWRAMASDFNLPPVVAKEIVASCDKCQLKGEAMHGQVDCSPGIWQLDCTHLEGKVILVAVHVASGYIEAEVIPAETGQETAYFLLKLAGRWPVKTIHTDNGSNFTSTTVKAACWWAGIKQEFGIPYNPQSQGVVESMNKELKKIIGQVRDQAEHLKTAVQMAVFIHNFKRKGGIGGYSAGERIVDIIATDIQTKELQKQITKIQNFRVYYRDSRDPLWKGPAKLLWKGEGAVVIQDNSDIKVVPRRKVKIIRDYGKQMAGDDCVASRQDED

The test addresses Human immunodeficiency virus type 1 integrase (Human immunodeficiency virus 1, UniProt Q7ZJM1). Description: Inhibition of HIV1 integrase strand transfer activity after 1 hr.
By IC50 is commonly meant the point on the concentration scale where inhibition reaches its midpoint. Low readings indicate inhibition by little substance, high ones a need for much substance. Compound `O=C(NCCCN1CCN(C(=O)/C=C/c2ccc(Cl)cc2)CC1)c1cc(O)c(O)c(O)c1` registered an IC50 of 24.9 µM. This lies in the double-digit micromolar range. The value for `O=C(NCCCN1CCN(C(=O)/C=C/c2ccc(Cl)cc2)CC1)c1ccc(O)c(O)c1` was above 100 µM; that for `O=C(NCCCN1CCN(C(=O)/C=C/c2cccc(O)c2)CC1)c1ccc(O)c(O)c1` was above 100 µM; that for `O=C(NCCCN1CCN(C(=O)/C=C/c2cccc(O)c2)CC1)c1cc(O)c(O)c(O)c1` was 15.4 µM. Turning to `O=C(NCCCN1CCN(C(=O)/C=C/c2ccccc2[N+](=O)[O-])CC1)c1cc(O)c(O)c(O)c1`, the midpoint of inhibition, the IC50, lay at 31.3 µM. The compound `Cc1ccc(/C=C/C(=O)N2CCN(CCCNC(=O)c3ccc(O)c(O)c3)CC2)cc1` displayed an IC50 above 100 µM. Turning to `O=C(NCCCN1CCN(C(=O)/C=C/c2ccccc2)CC1)c1cc(O)c(O)c(O)c1`, the concentration for half-maximal inhibition (IC50) was determined as 12.8 µM. In other words, the double-digit micromolar range.

For the compound `Cc1ccc(/C=C/C(=O)N2CCN(CCCNC(=O)c3cc(O)c(O)c(O)c3)CC2)cc1`, the IC50 came out at 17.5 µM. This IC50 and that of the compound before are within 1.5-fold of each other.

In the case of `O=C(O)C(=O)CC(=O)c1cc(OCc2ccccc2)cc(OCc2ccccc2)c1`, half-maximal inhibition (IC50) was put at 0.77 µM. Compared with the last compound, the IC50 is about 23-fold lower.

The compound `O=C(NCCCN1CCN(C(=O)/C=C/c2ccccc2Cl)CC1)c1cc(O)c(O)c(O)c1` showed an IC50 of 19.3 µM. The result for `O=C(NCCCN1CCN(C(=O)/C=C/c2ccccc2Cl)CC1)c1ccc(O)c(O)c1` reads above 100 µM; that for `O=C(NCCCN1CCN(C(=O)/C=C/c2ccccc2)CC1)c1ccc(O)c(O)c1`, above 100 µM.
